We go through eight molecules from patent US12226418B2, “Dosing regimen for the treatment of PI3K related disorders” (Incyte Corporation, priority 2018, dated 2025).

As a reminder, the IC50 is the concentration that inhibits the measured activity by half.

Test [1] relates to Pfeiffer cell line (diffuse large B cell lymphoma). Description: Pfeiffer cell proliferation assay. The class given is cell-based, human. The note with it: for IC50: Homo sapiens, Pfeiffer, [3H]-thymidine incorporation. On the procedure:
Pfeiffer cell line (diffuse large B cell lymphoma) are purchased from ATCC (Manassas, VA) and maintained in the culture medium recommended (RPMI and 10% FBS). To measure the anti-proliferation activity of the compounds, the Pfeiffer cells are plated with the culture medium (2×10^3 cells/well/per 200 μl) into 96-well ultra-low binding plates (Corning, Corning, NY), in the presence or absence of a concentration range of test compounds. After 3-4 days, [^3H]-thymidine (1 μCi/well) (PerkinElmer, Boston, MA) in PBS is then added to the cell culture for an additional 12 hours before the incorporated radioactivity is separated by filtration with water through GF/B filters (Packard Bioscience, Meridenj, CT) and measured by liquid scintillation counting with a TopCount (Packard Bioscience).
For orientation: Dividing cells build labelled thymidine or BrdU into new DNA.

The next test addresses PI3Kδ (p110δ/p85α) (Homo sapiens (Human), UniProt O00329). Description: PI3Kδ scintillation proximity assay. Type of test: biochemical. The note with it: 20 μM ATP; read-out: PI3Kδ SPA IC50. From the text:
[γ-^33P]ATP (10 mCi/mL) was purchased from Perkin-Elmer (Waltham, MA). Lipid kinase substrate, D-myo-Phosphatidylinositol 4,5-bisphosphate (PtdIns(4,5)P2)D (+)-sn-1,2-di-O-octanoylglyceryl, 3-O-phospho linked (PIP2), CAS 204858-53-7, was purchased from Echelon Biosciences (Salt Lake City, UT). PI3Kδ (p110δ/p85α) was purchased from Millipore (Bedford, MA). ATP, MgCl2, DTT, EDTA, MOPS and CHAPS were purchased from Sigma-Aldrich (St. Louis, MO). Wheat Germ Agglutinin (WGA) YSi SPA Scintillation Beads was purchased from GE healthcare life sciences (Piscataway, NJ).
The kinase reaction was conducted in polystyrene 384-well matrix white plate from Thermo Fisher Scientific in a final volume of 25 μL. Inhibitors were first diluted serially in DMSO and added to the plate wells before the addition of other reaction components. The final concentration of DMSO in the assay was 0.5%. The PI3K assays were carried out at room temperature in 20 mM MOPS, pH 6.7, 10 mM MgCl2, 5 mM DTT and CHAPS 0.03%. Reactions were initiated by the addition of ATP, the final reaction mixture consisted of 20 μM PIP2, 20 μM ATP, 0.2 μCi [γ-^33P]ATP, 4 nM PI3Kδ. Reactions were incubated for 210 min and terminated by the addition of 40 μL SPA beads suspended in quench buffer: 150 mM potassium phosphate pH 8.0, 20% glycerol. 25 mM EDTA, 400 μM ATP. The final concentration of SPA beads was 1.0 mg/mL. After the plate sealing, plates were shaken overnight at room temperature and centrifuged at 1800 rpm for 10 minutes, the radioactivity of the product was determined by scintillation counting on Topcount (Perkin-Elmer). IC50 determination was performed by fitting the curve of percent control activity versus the log of the inhibitor concentration using the GraphPad Prism 3.0 software. IC50 data for the Examples is presented in Table B as determined by Assay A.

Molecules are shown by their SMILES. Bounds are passed on as bounds.

PI3Kδ (p110δ/p85α), sequence (O00329 whole entry): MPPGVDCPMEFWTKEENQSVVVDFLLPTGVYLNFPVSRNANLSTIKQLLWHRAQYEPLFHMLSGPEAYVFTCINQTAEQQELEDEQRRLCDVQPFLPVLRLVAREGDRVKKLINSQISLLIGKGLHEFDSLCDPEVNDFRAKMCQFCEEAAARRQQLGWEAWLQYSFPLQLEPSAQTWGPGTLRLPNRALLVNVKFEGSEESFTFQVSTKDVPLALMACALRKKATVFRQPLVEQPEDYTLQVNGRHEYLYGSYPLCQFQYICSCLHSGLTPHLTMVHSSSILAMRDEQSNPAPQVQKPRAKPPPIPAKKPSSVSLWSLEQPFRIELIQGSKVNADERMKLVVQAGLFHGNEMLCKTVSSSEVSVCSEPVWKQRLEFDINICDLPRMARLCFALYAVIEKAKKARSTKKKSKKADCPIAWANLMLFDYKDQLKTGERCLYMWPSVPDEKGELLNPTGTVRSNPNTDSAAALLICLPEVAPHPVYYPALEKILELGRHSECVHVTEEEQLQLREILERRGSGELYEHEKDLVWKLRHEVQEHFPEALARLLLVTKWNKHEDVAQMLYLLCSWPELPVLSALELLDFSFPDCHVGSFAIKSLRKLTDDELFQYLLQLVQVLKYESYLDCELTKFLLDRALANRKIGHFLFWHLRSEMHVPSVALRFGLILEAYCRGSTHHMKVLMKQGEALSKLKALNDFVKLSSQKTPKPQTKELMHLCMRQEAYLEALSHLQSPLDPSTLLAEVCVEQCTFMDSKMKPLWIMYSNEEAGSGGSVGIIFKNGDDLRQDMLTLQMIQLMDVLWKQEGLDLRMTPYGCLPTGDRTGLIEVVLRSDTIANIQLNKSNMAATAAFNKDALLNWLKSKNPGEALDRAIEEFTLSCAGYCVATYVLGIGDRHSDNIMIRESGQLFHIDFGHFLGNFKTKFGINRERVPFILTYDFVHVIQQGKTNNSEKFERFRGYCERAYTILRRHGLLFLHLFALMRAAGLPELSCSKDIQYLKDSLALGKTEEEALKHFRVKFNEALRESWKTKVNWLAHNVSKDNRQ
PI3Kδ (p110δ/p85α), sequence (P27986 whole entry partner): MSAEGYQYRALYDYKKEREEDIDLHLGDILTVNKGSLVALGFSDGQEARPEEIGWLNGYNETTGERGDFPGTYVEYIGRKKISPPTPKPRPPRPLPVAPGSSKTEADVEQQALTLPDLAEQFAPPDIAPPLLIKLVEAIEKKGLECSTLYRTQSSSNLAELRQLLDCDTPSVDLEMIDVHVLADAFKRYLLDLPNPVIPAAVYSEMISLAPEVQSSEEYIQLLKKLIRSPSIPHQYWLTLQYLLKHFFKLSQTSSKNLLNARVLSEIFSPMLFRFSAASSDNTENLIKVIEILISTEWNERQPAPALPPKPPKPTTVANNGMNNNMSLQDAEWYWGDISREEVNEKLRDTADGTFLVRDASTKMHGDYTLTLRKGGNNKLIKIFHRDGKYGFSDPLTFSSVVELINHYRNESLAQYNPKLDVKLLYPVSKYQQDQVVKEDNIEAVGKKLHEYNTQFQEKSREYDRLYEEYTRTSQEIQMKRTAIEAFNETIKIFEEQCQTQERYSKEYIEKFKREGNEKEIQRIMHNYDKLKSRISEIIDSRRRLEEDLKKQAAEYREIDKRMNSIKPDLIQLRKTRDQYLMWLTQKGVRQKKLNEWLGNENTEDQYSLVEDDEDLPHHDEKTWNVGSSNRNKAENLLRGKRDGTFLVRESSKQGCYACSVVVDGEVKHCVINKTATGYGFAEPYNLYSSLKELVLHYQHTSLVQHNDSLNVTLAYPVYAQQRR

Take `CCOc1c(C(C)n2nc(C)c3c(N)ncnc32)cc(Cl)c(F)c1C1CNC(=O)C1` (single isomer, unassigned) [Example 1C]: the “sensitivity of Pfeiffer cancer cells to anti-proliferative effects in vitro” value in test [1] is on record as “sensitive”. With `CCOc1c(C(C)n2nc(C)c3c(N)ncnc32)cc(Cl)c(F)c1C1CNC(=O)O1` (single isomer, unassigned) [Example 2C, 5-{3-[1-(4-amino-3-methyl-1H-pyrazolo[3,4-d]pyrimidin-1-yl)ethyl]-5-chloro-2-ethoxy-6-fluorophenyl}-1,3-oxazolidin-2-one], the 50% inhibitory concentration (IC50) in test [1] is ≤ 0.01 µM. Take `CCOc1c(C(C)n2nc(C)c3c(N)ncnc32)cc(Cl)c(F)c1C1CNC(=O)O1` (single isomer, unassigned) [Example 2D, 5-{3-[1-(4-amino-3-methyl-1H-pyrazolo[3,4-d]pyrimidin-1-yl)ethyl]-5-chloro-2-ethoxy-6-fluorophenyl}-1,3-oxazolidin-2-one]: the 50% inhibitory concentration (IC50) on PI3Kδ (p110δ/p85α) is > 0.5 µM.

Take `CCOc1c(C(C)n2nc(C)c3c(N)ncnc32)cc(Cl)c(F)c1C1CNC(=O)C1` (single isomer, unassigned) [Example 1D, 4-{3-[1-(4-amino-3-methyl-1H-pyrazolo[3,4-d]pyrimidin-1-yl)ethyl]-5-chloro-2-ethoxy-6-fluorophenyl}pyrrolidin-2-one]: at PI3Kδ (p110δ/p85α), the half-inhibitory concentration (IC50) was 0.05 to 0.2 µM.

For the molecule `CCOc1c(C(C)n2nc(C)c3c(N)ncnc32)cc(Cl)c(F)c1C1CNC(=O)O1` (single isomer, unassigned) [Example 2A, 5-{3-[1-(4-amino-3-methyl-1H-pyrazolo[3,4-d]pyrimidin-1-yl)ethyl]-5-chloro-2-ethoxy-6-fluorophenyl}-1,3-oxazolidin-2-one], the IC50 at PI3Kδ (p110δ/p85α) lay in the range of 0.05 to 0.2 µM. Turning to `CCOc1c(C(C)n2nc(C)c3c(N)ncnc32)cc(Cl)c(F)c1C1CNC(=O)O1` (single isomer, unassigned) [Example 2B, 5-{3-[1-(4-amino-3-methyl-1H-pyrazolo[3,4-d]pyrimidin-1-yl)ethyl]-5-chloro-2-ethoxy-6-fluorophenyl}-1,3-oxazolidin-2-one], the IC50 on PI3Kδ (p110δ/p85α) was 0.05 to 0.2 µM. Still for that read-out and setting: the same measure for `CCOc1c(C(C)n2nc(C)c3c(N)ncnc32)cc(Cl)c(F)c1C1CNC(=O)C1` (single isomer, unassigned) [Example 1A, 4-{3-[1-(4-amino-3-methyl-1H-pyrazolo[3,4-d]pyrimidin-1-yl)ethyl]-5-chloro-2-ethoxy-6-fluorophenyl}pyrrolidin-2-one]: 0.05 to 0.2 µM. As to `CCOc1c(C(C)n2nc(C)c3c(N)ncnc32)cc(Cl)c(F)c1C1CNC(=O)C1` (single isomer, unassigned) [Example 1B, 4-{3-[1-(4-amino-3-methyl-1H-pyrazolo[3,4-d]pyrimidin-1-yl)ethyl]-5-chloro-2-ethoxy-6-fluorophenyl}pyrrolidin-2-one], the concentration for half-maximal inhibition (IC50) in test [1] is ≤ 0.01 µM.
